Laboratory results published in BindingDB's records for doi:10.1021/jm0309194 (University of Innsbruck, 2003).

Columns and labels:
[1] = In vitro binding affinity was determined against butyrylcholinesterase from torpedo californica
[2] = In vitro anticholinesterase activity against butyrylcholinesterase from torpedo californica

Compound | Ki [1] | IC50 [2]
C/C(=C\C(=O)N(C)[C@H]1CC[C@@]2(C)[C@@H](CC[C@@H]3[C@@H]2CC[C@]2(C)C([C@H](C)N(C)C)=CC[C@@H]32)C1)C(C)C [1N-[14-(1-dimethylaminoethyl)-2,15-dimethyl-(1S,7S,10R,11S)-tetracyclo[8.7.0.02,7.011,15]heptadec-13-en-5-yl]-1N,3,4-trimethyl-(E)-2-pentenamide] | 9.1 µM | 3.65 µM
C/C=C(\C)C(=O)NC1C=C2CC[C@@H]3[C@H](CC[C@]4(C)C([C@H](C)N(C)C)=CC[C@@H]34)[C@@]2(C)C[C@H]1O (stereo partly drawn) [1N-[14-[1-dimethylamino-(1S)-ethyl]-4-hydroxy-2,15-dimethyl-(1S,2R,4R,5R,10S,11S,15S)-tetracyclo[8.7.0.02,7.011,15]heptadeca-6,13-dien-5-yl]-2-methyl-(E)-2-butenamide] |  | 23.8 µM
C/C(=C\C(=O)N[C@H]1CC[C@@]2(C)[C@@H](CC[C@@H]3[C@@H]2CC[C@]2(C)[C@@H]([C@H](C)N(C)C)CC[C@@H]32)C1)C(C)C [3,4-Dimethyl-pent-2-enoic acid [(3S,5S,8R,9S,10S,13S,14S,17S)-17-(1-dimethylamino-ethyl)-10-methyl-13-(S)-methyl-hexadecahydro-cyclopenta[a]phenanthren-3-yl]-amide] | 3.25 µM | 4.63 µM
C/C=C(\C)C(=O)N[C@H]1CC[C@@]2(C)C(=CC[C@H]3C4=CC[C@H]([C@H](C)N(C)C)[C@@]4(C)CC[C@@H]32)C1=O [(E)-2-Methyl-but-2-enoic acid [(3S,8R,9S,10R,13R,17S)-17-((S)-1-dimethylamino-ethyl)-10,13-dimethyl-4-oxo-2,3,4,7,8,9,10,11,12,13,16,17-dodecahydro-1H-cyclopenta[a]phenanthren-3-yl]-amide] | 1.6 µM | 4.29 µM
C/C=C(\C)C(=O)N[C@H]1CC[C@@]2(C)C(=CC[C@H]3[C@@H]4CC[C@H]([C@H](C)N(C)C)[C@@]4(C)CC[C@@H]32)C1=O [(E)-2-Methyl-but-2-enoic acid [(3S,8S,9S,10R,13S,14S,17S)-17-((S)-1-dimethylamino-ethyl)-10,13-dimethyl-4-oxo-2,3,4,7,8,9,10,11,12,13,14,15,16,17-tetradecahydro-1H-cyclopenta[a]phenanthren-3-yl]-amide] | 3.08 µM | 2.1 µM
C/C(=C\C(=O)N(C)[C@H]1CC[C@@]2(C)[C@@H](CC[C@@H]3[C@@H]2CC[C@]2(C)[C@@H]([C@H](C)N(C)C)CC[C@@H]32)C1)C(C)C [(E)-3,4-Dimethyl-pent-2-enoic acid [(3S,5S,8R,9S,10S,13S,14S,17S)-17-((S)-1-dimethylamino-ethyl)-10,13-dimethyl-hexadecahydro-cyclopenta[a]phenanthren-3-yl]-methyl-amide] | 3.4 µM | 4.07 µM
C[C@@H]([C@H]1CC[C@H]2[C@@H]3CC[C@H]4C[C@@H](N(C)C(=O)/C=C/c5ccccc5)CC[C@]4(C)[C@H]3CC[C@]12C)N(C)C [(E)-N-[(3S,5S,8R,9S,10S,13S,14S,17S)-17-((S)-1-Dimethylamino-ethyl)-10,13-dimethyl-hexadecahydro-cyclopenta[a]phenanthren-3-yl]-N-methyl-3-phenyl-acrylamide] | 6.6 µM | 4.84 µM
C/C=C(\C)C(=O)N[C@@H]1[C@H](OC(C)=O)[C@@H]2CC[C@@H]3[C@H](CC[C@]4(C)[C@@H]([C@H](C)N(C)C)CC[C@@H]34)[C@@]2(C)C[C@@H]1O [Acetic acid (1S,4S,6R,7R,10R,11S,12S,15S,16S)-17-((S)-1-dimethylamino-ethyl)-2-(S)-hydroxy-10,13-dimethyl-3-((E)-2-methyl-but-2-enoylamino)-hexadecahydro-cyclopenta[a]phenanthren-4-yl ester] |  | 18.2 µM
CC(=O)O[C@H]1[C@@H](NC(=O)C=C(C)C)CC[C@]2(C)[C@H]3CC[C@]4(C)[C@@H]([C@H](C)N(C)C)CC[C@H]4[C@@H]3CC[C@@H]12 [Acetic acid (1S,6R,7R,10R,11S,12S,15S,16S)-17-((S)-1-dimethylamino-ethyl)-10,13-dimethyl-3-(3-methyl-but-2-enoylamino)-hexadecahydro-cyclopenta[a]phenanthren-4-yl ester] | 2.58 µM | 2.3 µM
C/C=C(\C)C(=O)N[C@@H]1[C@H](OC(C)=O)[C@@H]2CC[C@H]3C4=CC[C@H]([C@H](C)N(C)C)[C@@]4(C)CC[C@@H]3[C@@]2(C)C[C@@H]1O [Acetic acid (2S,3S,4R,5R,8R,9S,10R,13R,17S)-17-((S)-1-dimethylamino-ethyl)-2-hydroxy-10,13-dimethyl-3-((E)-2-methyl-but-2-enoylamino)-2,3,4,5,6,7,8,9,10,11,12,13,16,17-tetradecahydro-1H-cyclopenta[a]phenanthren-4-yl ester] | 26.3 µM | 38.4 µM
CC(=O)O[C@H]1[C@@H](NC(=O)c2ccccc2)[C@@H](O)C[C@]2(C)[C@H]3CC[C@]4(C)[C@@H]([C@H](C)N(C)C)CC[C@H]4[C@@H]3CC[C@@H]12 [Acetic acid (2S,3S,4R,5R,8S,9S,10R,13S,14S,17S)-3-benzoylamino-17-(1-dimethylamino-ethyl)-2-hydroxy-10-methyl-13-(S)-methyl-hexadecahydro-cyclopenta[a]phenanthren-4-yl ester] | 20.3 µM | 18 µM
CN[C@H]1CC[C@@]2(C)[C@@H](CC[C@@H]3[C@@H]2CC[C@]2(C)[C@@H]([C@H](C)N(C)C(C)=O)CC[C@@H]32)C1 [N-Methyl-N-[1-((3S,5S,8R,9S,10S,13S,14S,17S)-10-methyl-13-(S)-methyl-3-methylamino-hexadecahydro-cyclopenta[a]phenanthren-17-yl)-ethyl]-acetamide] | 8.6 µM | 16.5 µM
C[C@@H]([C@H]1CC[C@H]2[C@@H]3CC[C@H]4C[C@@H](NC(=O)c5ccccc5)[C@@H](O)C[C@]4(C)[C@H]3CC[C@]12C)N(C)C [N-[(2S,3R,5S,8R,9S,10S,13S,14S,17S)-17-(1-Dimethylamino-ethyl)-2-hydroxy-10-methyl-13-(S)-methyl-hexadecahydro-cyclopenta[a]phenanthren-3-yl]-benzamide] | 16.2 µM | 28.9 µM
CC(=O)N[C@H]1CC[C@@]2(C)[C@@H](CC[C@@H]3[C@@H]2CC[C@]2(C)[C@@H]([C@H](C)N(C)C)CC[C@@H]32)C1 [N-[(3S,5S,8R,9S,10S,13S,14S,17S)-17-((S)-1-Dimethylamino-ethyl)-10,13-dimethyl-hexadecahydro-cyclopenta[a]phenanthren-3-yl]-acetamide] | 7.5 µM | 10.3 µM
C[C@@H]([C@H]1CC[C@H]2[C@@H]3CC[C@H]4C(=O)C(NC(=O)c5ccccc5)=CC[C@]4(C)[C@H]3CC[C@]12C)N(C)C [N-[(5R,8S,9S,10R,13S,14S,17S)-17-((S)-1-Dimethylamino-ethyl)-10,13-dimethyl-4-oxo-4,5,6,7,8,9,10,11,12,13,14,15,16,17-tetradecahydro-1H-cyclopenta[a]phenanthren-3-yl]-benzamide] | 2.15 µM | 2.49 µM
